The record followed here is ChEMBL document CHEMBL1201862, “PubChem BioAssay data set” (2004).

Activity calls are given as the source filed them. Unless noted, the calls are words filed in the database; no cut-off is given here.

Holding throughout (format): functional
Test [1] deals with T1, Metabotropic glutamate receptor 4 (Rattus norvegicus, UniProt P31423). The experiment in a line: Modulation of the Metabotropic Glutamate Receptor mGluR4: Rat PAM Potency. [Related pubchem assays (depositor defined):AID2437, AID2807].
In test [2] the target is Metabotropic glutamate receptor 7 (Rattus norvegicus, UniProt P35400). In words: Modulation of the Metabotropic Glutamate Receptor mGluR4: Selectivity at mGluR7. [Related pubchem assays (depositor defined):AID2437, AID2807].
The target in test [3] is Metabotropic glutamate receptor 1 (Rattus norvegicus, UniProt P23385). In words: Modulation of the Metabotropic Glutamate Receptor mGluR4: Selectivity at mGluR1. [Related pubchem assays (depositor defined):AID2437, AID2807].
Test [4] concerns the target Metabotropic glutamate receptor 6 (Homo sapiens, UniProt O15303). In words: Modulation of the Metabotropic Glutamate Receptor mGluR4: Selectivity at mGluR6. [Related pubchem assays (depositor defined):AID2437, AID2807].
Test [5] deals with T1, Metabotropic glutamate receptor 4. The experiment in a line: Modulation of the Metabotropic Glutamate Receptor mGluR4: Selectivity at mGluR4. [Related pubchem assays (depositor defined):AID2437, AID2807].
The target in test [6] is Metabotropic glutamate receptor 8 (Rattus norvegicus, UniProt P70579). The experiment in a line: Modulation of the Metabotropic Glutamate Receptor mGluR4: Selectivity at mGluR8. [Related pubchem assays (depositor defined):AID2437, AID2807].
Test [7] has as its target Metabotropic glutamate receptor 3 (Rattus norvegicus, UniProt P31422). In words: Modulation of the Metabotropic Glutamate Receptor mGluR4: Selectivity at mGluR3. [Related pubchem assays (depositor defined):AID2437, AID2807].
The target in test [8] is Metabotropic glutamate receptor 5 (Rattus norvegicus, UniProt P31424). In words: Modulation of the Metabotropic Glutamate Receptor mGluR4: Selectivity at mGluR5. [Related pubchem assays (depositor defined):AID2437, AID2807].
Test [9] addresses Metabotropic glutamate receptor 2 (Rattus norvegicus, UniProt P31421). In words: mGluR2 modulation, off-target check – cell-based, rat, selectivity assay for mGluR4 modulator project (AID 2188).
The target of test [10] is Intestinal-type alkaline phosphatase (Mus musculus, UniProt P24822). The experiment in a line: PubChem AID 488785.
In test [11] the target is Intestinal-type alkaline phosphatase (Homo sapiens, UniProt P09923). In words: inhibition of human intestinal alkaline phosphatase – biochemical, dose response (AID 488876).
In test [12] the target is T2, Alkaline phosphatase, tissue-nonspecific isozyme (Homo sapiens, UniProt P05186).
T2 sequence (P05186 whole entry): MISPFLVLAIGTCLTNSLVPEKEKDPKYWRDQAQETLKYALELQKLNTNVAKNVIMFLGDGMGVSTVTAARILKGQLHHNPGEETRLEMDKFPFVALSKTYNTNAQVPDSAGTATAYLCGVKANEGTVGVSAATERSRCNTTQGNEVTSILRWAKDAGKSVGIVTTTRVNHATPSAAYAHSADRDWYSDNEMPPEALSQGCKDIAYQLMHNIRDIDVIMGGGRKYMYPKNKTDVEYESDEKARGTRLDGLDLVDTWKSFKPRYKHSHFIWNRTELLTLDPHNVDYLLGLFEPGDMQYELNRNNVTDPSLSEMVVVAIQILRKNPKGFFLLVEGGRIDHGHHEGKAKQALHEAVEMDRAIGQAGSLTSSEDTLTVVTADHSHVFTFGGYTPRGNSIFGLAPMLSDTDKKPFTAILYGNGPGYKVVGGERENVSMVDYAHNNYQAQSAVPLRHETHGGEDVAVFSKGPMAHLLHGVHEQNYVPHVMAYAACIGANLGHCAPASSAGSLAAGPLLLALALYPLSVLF
In words: TNAP enzyme inhibition by screening hits, dose response, selectivity assay for mouse IAP inhibitor project, biochemical, human TNAP, uHTS hits (AID 488906).

T1 sequence (P31423 whole entry): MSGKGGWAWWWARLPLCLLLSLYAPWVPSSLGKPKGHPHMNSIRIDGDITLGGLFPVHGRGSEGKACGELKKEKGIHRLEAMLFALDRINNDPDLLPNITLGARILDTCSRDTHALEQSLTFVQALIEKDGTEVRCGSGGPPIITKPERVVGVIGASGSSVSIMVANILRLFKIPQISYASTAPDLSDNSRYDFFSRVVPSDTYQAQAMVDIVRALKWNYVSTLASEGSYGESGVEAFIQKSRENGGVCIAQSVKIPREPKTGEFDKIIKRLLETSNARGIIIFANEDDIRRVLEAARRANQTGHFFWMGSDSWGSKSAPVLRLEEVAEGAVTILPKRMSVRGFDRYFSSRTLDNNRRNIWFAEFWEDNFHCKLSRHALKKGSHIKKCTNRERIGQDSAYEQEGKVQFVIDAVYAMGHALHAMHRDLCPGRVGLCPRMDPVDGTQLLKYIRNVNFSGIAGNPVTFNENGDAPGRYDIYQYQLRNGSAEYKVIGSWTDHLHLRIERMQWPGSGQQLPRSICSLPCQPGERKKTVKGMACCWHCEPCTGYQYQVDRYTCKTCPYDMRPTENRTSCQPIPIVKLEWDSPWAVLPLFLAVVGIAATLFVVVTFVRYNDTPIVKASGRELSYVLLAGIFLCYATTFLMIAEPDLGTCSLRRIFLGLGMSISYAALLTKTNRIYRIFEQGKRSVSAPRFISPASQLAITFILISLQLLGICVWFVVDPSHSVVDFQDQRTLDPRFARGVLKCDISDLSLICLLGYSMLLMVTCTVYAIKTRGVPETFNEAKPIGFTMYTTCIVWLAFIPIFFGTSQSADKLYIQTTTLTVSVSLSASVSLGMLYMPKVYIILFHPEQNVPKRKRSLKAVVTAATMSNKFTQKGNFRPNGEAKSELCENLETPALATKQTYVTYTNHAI
Chain of Intestinal-type alkaline phosphatase (Mus musculus, UniProt P24822) (P24822 whole entry): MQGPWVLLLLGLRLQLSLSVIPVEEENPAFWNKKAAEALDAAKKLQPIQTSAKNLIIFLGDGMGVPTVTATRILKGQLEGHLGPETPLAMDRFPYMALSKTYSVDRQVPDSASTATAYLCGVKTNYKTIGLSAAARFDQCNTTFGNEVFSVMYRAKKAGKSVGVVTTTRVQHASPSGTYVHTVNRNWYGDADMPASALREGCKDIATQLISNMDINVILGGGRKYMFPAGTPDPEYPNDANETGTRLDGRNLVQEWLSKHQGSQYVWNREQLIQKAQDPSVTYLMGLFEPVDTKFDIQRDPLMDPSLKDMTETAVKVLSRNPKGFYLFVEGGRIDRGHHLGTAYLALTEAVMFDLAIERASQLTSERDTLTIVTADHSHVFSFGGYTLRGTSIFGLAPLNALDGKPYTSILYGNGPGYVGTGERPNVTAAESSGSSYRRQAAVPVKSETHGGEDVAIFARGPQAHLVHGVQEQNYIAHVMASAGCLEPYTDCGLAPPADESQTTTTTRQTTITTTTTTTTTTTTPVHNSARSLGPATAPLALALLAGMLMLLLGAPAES
Chain of Intestinal-type alkaline phosphatase (Homo sapiens, UniProt P09923) (P09923 whole entry): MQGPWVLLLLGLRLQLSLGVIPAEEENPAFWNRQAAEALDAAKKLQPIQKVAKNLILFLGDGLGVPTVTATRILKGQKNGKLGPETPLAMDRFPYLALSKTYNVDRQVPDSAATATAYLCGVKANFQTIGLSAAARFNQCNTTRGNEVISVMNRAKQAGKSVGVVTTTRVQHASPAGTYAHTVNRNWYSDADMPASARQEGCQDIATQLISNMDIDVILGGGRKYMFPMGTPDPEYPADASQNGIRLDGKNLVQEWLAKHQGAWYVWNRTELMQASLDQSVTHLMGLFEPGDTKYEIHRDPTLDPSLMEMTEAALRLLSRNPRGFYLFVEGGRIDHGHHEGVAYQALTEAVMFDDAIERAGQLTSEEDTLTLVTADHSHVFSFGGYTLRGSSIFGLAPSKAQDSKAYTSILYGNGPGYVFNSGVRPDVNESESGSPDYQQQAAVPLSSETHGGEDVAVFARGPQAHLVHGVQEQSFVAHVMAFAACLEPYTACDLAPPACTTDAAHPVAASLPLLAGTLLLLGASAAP
Chain of Metabotropic glutamate receptor 6 (O15303 whole entry): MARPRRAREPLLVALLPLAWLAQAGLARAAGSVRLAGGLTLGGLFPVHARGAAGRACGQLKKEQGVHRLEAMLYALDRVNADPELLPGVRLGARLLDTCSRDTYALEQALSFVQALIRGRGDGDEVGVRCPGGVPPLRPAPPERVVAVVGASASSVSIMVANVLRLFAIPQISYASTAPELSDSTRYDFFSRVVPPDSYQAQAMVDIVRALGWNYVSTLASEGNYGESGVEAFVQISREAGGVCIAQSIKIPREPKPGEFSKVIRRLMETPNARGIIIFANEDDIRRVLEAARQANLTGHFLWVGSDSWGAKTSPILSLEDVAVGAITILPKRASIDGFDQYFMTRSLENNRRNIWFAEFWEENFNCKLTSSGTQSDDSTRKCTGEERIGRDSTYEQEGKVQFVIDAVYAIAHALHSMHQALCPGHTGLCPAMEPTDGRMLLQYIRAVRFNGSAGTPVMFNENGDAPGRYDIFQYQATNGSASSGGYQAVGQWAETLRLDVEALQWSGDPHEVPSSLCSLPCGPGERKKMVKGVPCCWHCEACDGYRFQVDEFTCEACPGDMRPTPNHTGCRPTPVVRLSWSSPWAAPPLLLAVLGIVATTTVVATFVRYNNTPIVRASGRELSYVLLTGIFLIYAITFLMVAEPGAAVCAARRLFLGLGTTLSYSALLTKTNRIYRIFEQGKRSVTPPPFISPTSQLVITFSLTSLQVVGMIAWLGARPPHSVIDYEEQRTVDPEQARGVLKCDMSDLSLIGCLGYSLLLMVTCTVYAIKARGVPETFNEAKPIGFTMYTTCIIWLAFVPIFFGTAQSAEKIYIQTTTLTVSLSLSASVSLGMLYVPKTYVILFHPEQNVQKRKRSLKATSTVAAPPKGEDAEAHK
Chain of Metabotropic glutamate receptor 2 (P31421 whole entry): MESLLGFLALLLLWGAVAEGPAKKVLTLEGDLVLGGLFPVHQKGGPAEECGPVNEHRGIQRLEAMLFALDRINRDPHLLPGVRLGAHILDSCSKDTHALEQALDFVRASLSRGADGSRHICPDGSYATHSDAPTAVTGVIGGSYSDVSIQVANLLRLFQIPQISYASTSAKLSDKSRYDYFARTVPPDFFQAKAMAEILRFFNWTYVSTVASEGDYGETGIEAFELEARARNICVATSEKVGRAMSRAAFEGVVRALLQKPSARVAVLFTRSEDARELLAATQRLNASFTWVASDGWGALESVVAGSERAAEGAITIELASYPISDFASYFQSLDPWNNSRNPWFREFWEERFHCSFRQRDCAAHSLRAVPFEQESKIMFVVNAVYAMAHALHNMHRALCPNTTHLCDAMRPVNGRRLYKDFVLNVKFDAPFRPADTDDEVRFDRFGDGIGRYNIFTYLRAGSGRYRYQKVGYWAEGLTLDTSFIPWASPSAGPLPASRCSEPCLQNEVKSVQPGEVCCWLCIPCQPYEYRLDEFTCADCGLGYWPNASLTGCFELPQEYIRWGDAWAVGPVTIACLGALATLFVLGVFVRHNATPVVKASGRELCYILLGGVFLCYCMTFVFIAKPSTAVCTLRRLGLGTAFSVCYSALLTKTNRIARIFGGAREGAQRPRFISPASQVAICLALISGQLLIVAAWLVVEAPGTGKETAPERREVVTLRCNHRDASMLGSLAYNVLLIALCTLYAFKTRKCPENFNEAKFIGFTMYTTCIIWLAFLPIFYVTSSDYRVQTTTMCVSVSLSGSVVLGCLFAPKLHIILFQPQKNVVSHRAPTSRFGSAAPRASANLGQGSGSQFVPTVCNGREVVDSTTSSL
Chain of Metabotropic glutamate receptor 5 (P31424 whole entry): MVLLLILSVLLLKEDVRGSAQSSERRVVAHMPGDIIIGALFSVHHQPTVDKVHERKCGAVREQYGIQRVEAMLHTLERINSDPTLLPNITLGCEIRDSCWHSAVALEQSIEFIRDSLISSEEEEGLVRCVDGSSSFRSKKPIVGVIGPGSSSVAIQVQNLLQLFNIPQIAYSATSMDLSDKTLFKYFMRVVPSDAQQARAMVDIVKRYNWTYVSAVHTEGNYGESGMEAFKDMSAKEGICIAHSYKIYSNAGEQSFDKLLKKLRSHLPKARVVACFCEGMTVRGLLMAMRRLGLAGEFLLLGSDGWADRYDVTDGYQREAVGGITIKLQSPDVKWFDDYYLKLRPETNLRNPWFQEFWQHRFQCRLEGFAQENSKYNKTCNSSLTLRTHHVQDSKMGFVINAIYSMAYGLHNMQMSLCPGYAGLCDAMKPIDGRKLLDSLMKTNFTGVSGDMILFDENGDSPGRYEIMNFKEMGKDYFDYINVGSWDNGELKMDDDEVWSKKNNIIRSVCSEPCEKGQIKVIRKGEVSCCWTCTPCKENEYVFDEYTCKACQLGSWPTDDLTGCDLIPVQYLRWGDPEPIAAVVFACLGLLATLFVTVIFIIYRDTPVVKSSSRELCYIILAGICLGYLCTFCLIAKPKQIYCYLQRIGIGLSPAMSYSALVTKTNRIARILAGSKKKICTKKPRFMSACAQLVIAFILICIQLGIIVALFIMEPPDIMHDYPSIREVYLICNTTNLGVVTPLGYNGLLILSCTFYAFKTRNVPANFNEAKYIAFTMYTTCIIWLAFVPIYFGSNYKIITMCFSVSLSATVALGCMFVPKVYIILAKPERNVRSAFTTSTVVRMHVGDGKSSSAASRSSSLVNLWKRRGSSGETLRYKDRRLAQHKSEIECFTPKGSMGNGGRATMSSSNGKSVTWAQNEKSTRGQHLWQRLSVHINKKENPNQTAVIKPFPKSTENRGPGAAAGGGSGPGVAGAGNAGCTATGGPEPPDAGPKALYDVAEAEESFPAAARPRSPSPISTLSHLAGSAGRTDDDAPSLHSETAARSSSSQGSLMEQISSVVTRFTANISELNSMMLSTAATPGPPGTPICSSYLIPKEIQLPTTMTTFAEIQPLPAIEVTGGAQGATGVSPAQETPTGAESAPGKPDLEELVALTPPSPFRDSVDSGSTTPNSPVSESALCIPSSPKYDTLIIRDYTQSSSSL

Turning to `O=C(Nc1cccc(Cl)c1)c1ccccn1`, the EC50 in [1] is 0.295 µM (active); in test [3], 1.17 µM (inactive); in test [4], 1.25 µM (active); in [5], 0.597 µM (active); in test [6], 9.14 µM (inactive); in [7], 0.811 µM (inactive). Further, the EC50 in test [8] is 1.24 µM (inactive); in [9] it was 1.47 µM (inactive). Also, the “Activity EC50” value in test [2] is 163 µM.
With `NS(=O)(=O)c1cccc(NC(=O)CSc2nnc(-c3ccncc3)n2C2CC2)c1`, the IC50 in test [10] is 2.34 µM (active); in test [11], 9.42 µM (active); in [12], 17.1 µM (active).

The EC50 is the concentration that produces a half-maximal response. As a reminder, the IC50 is the concentration needed to halve the response being measured.
